The structures appear in SMILES notation. Where a name gives a salt, the structure may show the parent alone.

For this assay, the system named is A549 cells (KRAS G12S mutant). The experiment in a line: Cell proliferation inhibition experiment, 3D spheroid, CellTiter-Glo, A549. The class given is cell-based, human. The note with it: Homo sapiens, A549, 120 h, A549 (KRAS G12S mutant) 3D spheroid, 5 days with compound, CellTiter-Glo; read-out: A549 IC50. The procedure, abridged:
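First, H358 (800/well) or A549 (400/well) cells are plated in 2% FBS medium and left overnight to form spheroids. Next, compound is added as a 3.16-fold gradient at 0.1% DMSO for 5 days. Finally, CellTiter-Glo signal is read and IC50 derived by four-parameter fitting.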
For orientation: ATP-based viability assays read luminescence as a measure of living cells.
What is called IC50 is the midpoint of a concentration-inhibition curve. Regarding `C=CC(=O)N1CCN2C(=O)c3c(N4C[C@@H](CO)CC4(C)C)nc(-c4c(O)cccc4F)c(Cl)c3OC[C@H]2C1` (single isomer, unassigned) [Z240-1], the IC50 amounted to 10.1 µM. The same measure for `C=CC(=O)N1CCN2C(=O)c3c(N4C[C@H](CO)CC4(C)C)nc(-c4c(O)cccc4F)c(Cl)c3OC[C@H]2C1` (single isomer, unassigned) [Z240-2]: more than 10 µM. For the molecule `C=CC(=O)N1CCN2C(=O)c3c(N4CC[C@H](OC)C4(C)C)nc(-c4c(O)cccc4F)c(Cl)c3OC[C@H]2C1` (single isomer, unassigned) [Z241a-1], the IC50 is 9.55 µM. On to `C=CC(=O)N1CCN2C(=O)c3c(N4CC[C@@H](OC)C4(C)C)nc(-c4c(O)cccc4F)c(Cl)c3OC[C@H]2C1` (single isomer, unassigned) [Z241a-2], for which the IC50 came out at 3.04 µM. For `C=CC(=O)N1CCN2C(=O)c3c(N4C[C@@](C)(O)CC4(C)C)nc(-c4c(O)cccc4F)c(Cl)c3OC[C@H]2C1` (single isomer, unassigned) [Z243-1], the IC50 came out at 3.1 µM. Regarding `C=CC(=O)N1CCN2C(=O)c3c(N4C[C@](C)(O)CC4(C)C)nc(-c4c(O)cccc4F)c(Cl)c3OC[C@H]2C1` (single isomer, unassigned) [Z243-2], the IC50 was 3.44 µM. Turning to `C=CC(=O)N1CCN2C(=O)c3c(N4C[C@@H](OC)CC4(C)C)nc(-c4c(O)cccc4F)c(Cl)c3OC[C@H]2C1` (single isomer, unassigned) [Z244-1], the IC50 was determined as 2.9 µM. On to `C=CC(=O)N1CCN2C(=O)c3c(N4C[C@H](OC)CC4(C)C)nc(-c4c(O)cccc4F)c(Cl)c3OC[C@H]2C1` (single isomer, unassigned) [Z244-2], for which the IC50 was 2.08 µM. The value for `C=CC(=O)N1CCN2C(=O)c3c(N4C[C@@H](O)CC4(C)C)nc(-c4c(O)cccc4F)c(F)c3OC[C@H]2C1` (single isomer, unassigned) [Z256-1] was 12.1 µM; that for `C=CC(=O)N1CCN2C(=O)c3c(N4C[C@@H](OC)CC4(C)C)nc(-c4c(O)cccc4F)c(F)c3OC[C@H]2C1` (single isomer, unassigned) [Z256a-1] was 9.16 µM; that for `C=CC(=O)N1CCN2C(=O)c3c(N4C[C@H](OC)CC4(C)C)nc(-c4c(O)cccc4F)c(F)c3OC[C@H]2C1` (single isomer, unassigned) [Z256a-2] was 9.27 µM. With `C=CC(=O)N1CCN2C(=O)c3c(N4C[C@@](C)(O)CC4(C)C)nc(-c4c(O)cccc4F)c(F)c3OC[C@H]2C1` (single isomer, unassigned) [Z256b-1], the IC50 came out at 10.2 µM. For the molecule `C=CC(=O)N1CCN2C(=O)c3c(N4Cc5cn(C)nc5[C@H]4C)nc(-c4c(O)cccc4F)c(Cl)c3OC[C@H]2C1` (single isomer, unassigned) [Z291-1S, trifluoroacetate], the IC50 was determined as 9.22 µM. The same measure for `C=CC(=O)N1CCN2C(=O)c3c(N4CC(N(C)CCOC)CC4(C)C)nc(-c4c(O)cccc4F)c(Cl)c3OCC2C1` (single isomer, unassigned) [Z296-1]: 3.34 µM; for `C=CC(=O)N1CCN2C(=O)c3c(N4C[C@H](N(C)CCOC)CC4(C)C)nc(-c4c(O)cccc4F)c(Cl)c3OC[C@H]2C1` (single isomer, unassigned) [Z296-2]: 3.79 µM; for `C=CC(=O)N1CCN2C(=O)c3c(N4C[C@H](N5CCOCC5)CC4(C)C)nc(-c4c(O)cccc4F)c(Cl)c3OC[C@H]2C1` (single isomer, unassigned) [Z297-1]: 7 µM. The same measure for `C=CC(=O)N1CCN2C(=O)c3c(N4C[C@@H](N5CCOCC5)CC4(C)C)nc(-c4c(O)cccc4F)c(Cl)c3OC[C@H]2C1` (single isomer, unassigned) [Z297-2]: 8.7 µM. The same measure for `C=CC(=O)N1CCN2C(=O)c3c(N4CCN(C)[C@H](C)[C@@H]4C)nc(-c4c(O)cccc4F)c(Cl)c3OC[C@H]2C1` (single isomer, unassigned) [Z308a-1]: 14.4 µM; for `C=CC(=O)N1CCN2C(=O)c3c(N4C[C@@H](N(C)C)CC4(C)C)nc(-c4c(O)cccc4F)c(Cl)c3OC[C@H]2C1` (single isomer, unassigned) [Z324-1]: 2.85 µM.

Take `C=CC(=O)N1CCN2C(=O)c3c(N4C[C@H](N(C)C)CC4(C)C)nc(-c4c(O)cccc4F)c(Cl)c3OC[C@H]2C1` (single isomer, unassigned) [Z324-2]: the IC50 was determined as 4.65 µM.

Consider `C=CC(=O)N1CCN2C(=O)c3c(N4C[C@H](O)CC4(C)C)nc(-c4ccccc4F)c(Cl)c3OC[C@H]2C1` (single isomer, unassigned) [Z325-2], for which the IC50 is more than 30 µM. As to `C=CC(=O)N1CCN2C(=O)c3c(N4CC[C@@H](OC)C4(C)C)nc(-c4c(O)cccc4F)c(F)c3OC[C@H]2C1` (single isomer, unassigned) [Z327-1], the IC50 amounted to 7.93 µM. For `C=CC(=O)N1CCN2C(=O)c3c(N4CC[C@H](OC)C4(C)C)nc(-c4c(O)cccc4F)c(F)c3OC[C@H]2C1` (single isomer, unassigned) [Z327-2], the IC50 stood at 9.51 µM. `C=CC(=O)N1CCN2C(=O)c3c(N4CCO[C@](C)(CO)C4)nc(-c4c(O)cccc4F)c(Cl)c3OC[C@H]2C1` (single isomer, unassigned) [Z333-1]: the IC50 was more than 30 µM. Take `C=CC(=O)N1CCN2C(=O)c3c(N4C[C@@H](O)CC4(C)C)nc(-c4c(O)ccc(Cl)c4F)c(F)c3OC[C@H]2C1` (single isomer, unassigned) [Z340-1]: the IC50 was found to be 5.51 µM. As to `C=CC(=O)N1CCN2C(=O)c3c(N4C[C@H](O)CC4(C)C)nc(-c4c(O)ccc(Cl)c4F)c(F)c3OC[C@H]2C1` (single isomer, unassigned) [Z340-2], the concentration for half-maximal inhibition (IC50) came to 3.17 µM. The value for `C=CC(=O)N1CCN2C(=O)c3c(N4C[C@@H](O)CC4(C)C)nc(-c4c(F)ccc(Cl)c4O)c(F)c3OC[C@H]2C1` (single isomer, unassigned) [Z341-1] was 11.1 µM; that for `C=CC(=O)N1CCN2C(=O)c3c(N4Cc5nn(C)cc5[C@@H]4C)nc(-c4c(O)cccc4F)c(Cl)c3OC[C@H]2C1` (single isomer, unassigned) [Z345-2] was 9.4 µM. In the case of `C=CC(=O)N1CCN2C(=O)c3c(N4CC[C@@H](N(C)C)C4(C)C)nc(-c4c(O)cccc4F)c(Cl)c3OC[C@H]2C1` (single isomer, unassigned) [Z360-1], the IC50 came out at 2.53 µM. Turning to `C=CC(=O)N1CCN2C(=O)c3c(N4CC[C@H](N(C)C)C4(C)C)nc(-c4c(O)cccc4F)c(Cl)c3OC[C@H]2C1` (single isomer, unassigned) [Z360-2], the IC50 is more than 10 µM. The value for `C=CC(=O)N1CCN2C(=O)c3c(N4C[C@@H](O)CC4(C)C)nc(-c4c(F)ccc(F)c4O)c(F)c3OC[C@H]2C1` (single isomer, unassigned) [Z449-1] was more than 30 µM; that for `C=CC(=O)N1CCN2C(=O)c3c(Nc4c(C(C)C)ncnc4C(C)C)nc(-c4c(O)cccc4F)c(Cl)c3OC[C@H]2C1` [Z15, (6aR)-8-acryloyl-4-chloro-1-((4,6-diisopropylpyrimidin-5-yl)amino)-3-(2-fluoro-6-hydroxyphenyl)-6,6a,7,8,9,10-hexahydro-12H-pyrazino[2,1-c]pyrido[3,4-f][1,4]oxazepin-12-one] was 19 µM. The value for `C=CC(=O)N1CCN2C(=O)c3c(N(C)c4c(C(C)C)ncnc4C(C)C)nc(-c4c(O)cccc4F)c(Cl)c3OC[C@H]2C1` [Z20, (6aR)-8-acryloyl-4-chloro-1-((4,6-diisopropylpyrimidin-5-yl)(methyl)amino)-3-(2-fluoro-6-hydroxyphenyl)-6,6a,7,8,9,10-hexahydro-12H-pyrazino[2,1-c]pyrido[3,4-f][1,4]oxazepin-12-one] was 9.02 µM. The value for `C=CC(=O)N1CCN2C(=O)c3c(N4CCC(C)(C)C4)nc(-c4c(O)cccc4F)c(Cl)c3OC[C@H]2C1` [Z21, (6aR)-8-acryloyl-4-chloro-1-(3,3-dimethylpyrrolidin-1-yl)-3-(2-fluoro-6-hydroxyphenyl)-6,6a,7,8,9,10-hexahydro-12H-pyrazino[2,1-c]pyrido[3,4-f][1,4]oxazepin-12-one] was more than 20 µM; that for `C=CC(=O)N1CCN2C(=O)c3c(N4CCCC4(C)C)nc(-c4c(O)cccc4F)c(Cl)c3OC[C@H]2C1` [Z22, (6aR)-8-acryloyl-4-chloro-1-(2,2-dimethylpyrrolidin-1-yl)-3-(2-fluoro-6-hydroxyphenyl)-6,6a,7,8,9,10-hexahydro-12H-pyrazino[2,1-c]pyrido[3,4-f][1,4]oxazepin-12-one] was more than 30 µM; that for `C=CC(=O)N1CCN2C(=O)c3c(N4CCN(C)C5(CC5)C4)nc(-c4c(O)cccc4F)c(Cl)c3OC[C@H]2C1` [Z83, (6aR)-8-acryloyl-4-chloro-3-(2-fluoro-6-hydroxyphenyl)-1-(4-methyl-4,7-diazaspiro[2 .5]octan-7-yl)-6,6a,7,8,9,10-hexahydro-12H-pyrazino[2,1-c]pyrido[3,4-f][1,4]oxazepin-12 (6aH)-one] was more than 10 µM. For the molecule `C=CC(=O)N1CCN2C(=O)c3c(N4C[C@@H](N(C)C)C[C@@H]4C)nc(-c4c(O)cccc4F)c(Cl)c3OC[C@H]2C1` [Z237-2, (6aR)-8-acryloyl-4-chloro-1-((2S,4S)-4-(dimethylamino)-2-methylpyrrolidin-1-yl)-3-(2-fluoro-6-hydroxyphenyl)-6,6a,7,8,9,10-hexahydro-12H-pyrazino[2,1-c]pyrido[3,4-f][1,4]oxazepin-12-one], the IC50 came out at 5.53 µM. For the molecule `C=CC(=O)N1CCN2C(=O)c3c(N4CCC(OC)C4(C)C)nc(-c4c(O)cccc4F)c(Cl)c3OC[C@H]2C1` (stereo partly drawn) [Z241a, (6aR)-8-acryloyl-4-chloro-3-(2-fluoro-6-hydroxyphenyl)-1-(3-methoxy-2,2-dimethylpyrrolidin-1-yl)-6,6a,7,8,9,10-hexahydro-12H-pyrazino[2,1-c]pyrido[3,4-f][1,4]oxazepin-12-one], the IC50 amounted to 4.94 µM.

The record behind these values is patent publication US20230203060A1 (GENFLEET THERAPEUTICS (SHANGHAI) INC., priority 2020, published 2023).
